Test results taken from patent US10544143B2, “4-azaindole compounds” (BRISTOL-MYERS SQUIBB COMPANY, priority 2017, dated 2020).
Where two headings read alike, the source gives them in different places.

Legend:
human TLR7 = human TLR7 (Homo sapiens (Human), UniProt Q9NYK1); test: TLR7 inhibition reporter assay (HEK-Blue SEAP); assay type: cell-based; conditions: HEK-Blue human TLR7 cells, gardiquimod 7.5 μM
human TLR8 = human TLR8 (Homo sapiens (Human), UniProt Q9NR97); test: TLR8 inhibition reporter assay (HEK-Blue SEAP); conditions: R848 15.9 μM;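 also: SEAP driven by IFN-β minimal promoter carrying NF-κB and AP-1 sites, compounds dosed 0.05 nM to 50 µM for 22 h, inhibition scaled between agonist-plus-DMSO and reference-inhibitor wells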
human TLR8, sequence (Q9NR97 27-1041): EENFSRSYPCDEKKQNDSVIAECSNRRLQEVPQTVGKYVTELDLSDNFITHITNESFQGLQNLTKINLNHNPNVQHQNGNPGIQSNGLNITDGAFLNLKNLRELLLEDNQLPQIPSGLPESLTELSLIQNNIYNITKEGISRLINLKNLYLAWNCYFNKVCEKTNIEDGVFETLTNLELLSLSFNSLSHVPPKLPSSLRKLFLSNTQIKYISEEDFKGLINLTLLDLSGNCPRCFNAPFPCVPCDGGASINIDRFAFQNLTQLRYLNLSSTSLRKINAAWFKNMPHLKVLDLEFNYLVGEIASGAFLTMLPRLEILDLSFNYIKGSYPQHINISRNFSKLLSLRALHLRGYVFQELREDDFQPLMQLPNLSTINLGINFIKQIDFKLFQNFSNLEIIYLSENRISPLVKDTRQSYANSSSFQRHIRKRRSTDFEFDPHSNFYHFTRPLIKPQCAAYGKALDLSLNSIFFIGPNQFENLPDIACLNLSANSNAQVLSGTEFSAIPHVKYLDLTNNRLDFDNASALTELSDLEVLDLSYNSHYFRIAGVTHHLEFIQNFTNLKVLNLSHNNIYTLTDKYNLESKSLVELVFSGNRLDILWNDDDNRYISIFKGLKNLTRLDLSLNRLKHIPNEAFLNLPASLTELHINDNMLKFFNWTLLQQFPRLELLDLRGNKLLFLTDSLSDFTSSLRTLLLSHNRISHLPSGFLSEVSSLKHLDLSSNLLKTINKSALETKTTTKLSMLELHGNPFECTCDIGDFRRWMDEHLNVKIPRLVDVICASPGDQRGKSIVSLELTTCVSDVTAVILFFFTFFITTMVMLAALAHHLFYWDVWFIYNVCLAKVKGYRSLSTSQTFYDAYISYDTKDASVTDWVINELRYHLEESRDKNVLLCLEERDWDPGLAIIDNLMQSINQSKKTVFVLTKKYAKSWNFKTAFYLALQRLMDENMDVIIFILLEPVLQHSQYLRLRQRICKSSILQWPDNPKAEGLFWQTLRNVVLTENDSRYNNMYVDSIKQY
Procedure: HEK-Blue™-cells (Invivogen) overexpressing human TLR7, TLR8 or TLR9 receptors were used for screening inhibitors of these receptors using an inducible SEAP (secreted embryonic alkaline phosphatase) reporter gene under the control of the IFN-β minimal promoter fused to five NF-κB and AP-1-binding sites. Briefly, cells are seeded into Greiner 384 well plates (15000 cells per well for TLR7, 20,000 for TLR8 and 25,000 for TLR9) and then treated with test compounds in DMSO to yield a final dose response concentration range of 0.05 nM-50 μM. After a 30 minute compound pre-treatment at room temperature, the cells are then stimulated with a TLR7 ligand (gardiquimod at a final concentration of 7.5 μM), TLR8 ligand (R848 at a final concentration of 15.9 μM) or TLR9 ligand (ODN2006 at a final concentration of 5 nM) to activate NF-κB and AP-1 which induce the production of SEAP. After a 22 hour incubation at 37° C., 5% CO2, SEAP levels are determined with the addition of HEK-Blue™ Detection reagent (Invivogen), a cell culture medium that allows for detection of SEAP, according to manufacturer's specifications.

human TLR9 = human TLR9 (Homo sapiens (Human), UniProt Q9NR96); test: TLR9 inhibition reporter assay (HEK-Blue SEAP); conditions: ODN2006 5 nM;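 also: SEAP driven by an IFN-β minimal promoter with NF-κB and AP-1 sites, read after 22 h, compounds dosed 0.05 nM–50 µM, inhibition scaled between agonist plus DMSO and reference-inhibitor wells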
human TLR9, sequence (Q9NR96 26-1032): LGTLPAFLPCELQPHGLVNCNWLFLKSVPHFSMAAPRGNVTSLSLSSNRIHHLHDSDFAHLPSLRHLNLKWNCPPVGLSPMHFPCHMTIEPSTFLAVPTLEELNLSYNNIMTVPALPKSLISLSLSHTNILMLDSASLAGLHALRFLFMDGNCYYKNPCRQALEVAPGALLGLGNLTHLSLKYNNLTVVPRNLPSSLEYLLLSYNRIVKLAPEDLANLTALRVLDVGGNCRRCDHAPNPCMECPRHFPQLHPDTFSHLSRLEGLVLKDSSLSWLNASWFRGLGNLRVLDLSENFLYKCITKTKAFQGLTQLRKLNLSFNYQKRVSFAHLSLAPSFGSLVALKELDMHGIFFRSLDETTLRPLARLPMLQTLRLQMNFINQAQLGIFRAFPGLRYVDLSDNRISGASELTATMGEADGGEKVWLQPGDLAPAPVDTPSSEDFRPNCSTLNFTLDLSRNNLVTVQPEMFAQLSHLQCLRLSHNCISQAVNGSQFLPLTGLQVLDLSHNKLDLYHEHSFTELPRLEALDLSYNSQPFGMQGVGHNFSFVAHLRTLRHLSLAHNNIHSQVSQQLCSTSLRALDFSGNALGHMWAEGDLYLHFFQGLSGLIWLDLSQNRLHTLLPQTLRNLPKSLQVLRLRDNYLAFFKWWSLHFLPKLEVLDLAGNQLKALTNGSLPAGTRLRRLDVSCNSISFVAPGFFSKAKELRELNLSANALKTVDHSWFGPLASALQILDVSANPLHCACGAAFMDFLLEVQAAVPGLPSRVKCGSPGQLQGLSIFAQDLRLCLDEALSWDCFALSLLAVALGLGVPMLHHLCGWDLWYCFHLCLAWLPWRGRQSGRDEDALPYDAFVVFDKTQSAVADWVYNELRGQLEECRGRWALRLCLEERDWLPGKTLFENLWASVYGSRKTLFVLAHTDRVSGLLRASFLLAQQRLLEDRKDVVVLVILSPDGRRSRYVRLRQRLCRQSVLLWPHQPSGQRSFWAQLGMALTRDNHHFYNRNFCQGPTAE

[1] = read-out: TLR8 IC50, HEK-Blue human TLR8 cells
[2] = read-out: TLR9 IC50, HEK-Blue human TLR9 cells
[3] = TLR8 IC50, HEK-Blue human TLR8 cells
[4] = TLR9 IC50, HEK-Blue human TLR9 cells

human TLR7, sequence (Q9NYK1 27-1049): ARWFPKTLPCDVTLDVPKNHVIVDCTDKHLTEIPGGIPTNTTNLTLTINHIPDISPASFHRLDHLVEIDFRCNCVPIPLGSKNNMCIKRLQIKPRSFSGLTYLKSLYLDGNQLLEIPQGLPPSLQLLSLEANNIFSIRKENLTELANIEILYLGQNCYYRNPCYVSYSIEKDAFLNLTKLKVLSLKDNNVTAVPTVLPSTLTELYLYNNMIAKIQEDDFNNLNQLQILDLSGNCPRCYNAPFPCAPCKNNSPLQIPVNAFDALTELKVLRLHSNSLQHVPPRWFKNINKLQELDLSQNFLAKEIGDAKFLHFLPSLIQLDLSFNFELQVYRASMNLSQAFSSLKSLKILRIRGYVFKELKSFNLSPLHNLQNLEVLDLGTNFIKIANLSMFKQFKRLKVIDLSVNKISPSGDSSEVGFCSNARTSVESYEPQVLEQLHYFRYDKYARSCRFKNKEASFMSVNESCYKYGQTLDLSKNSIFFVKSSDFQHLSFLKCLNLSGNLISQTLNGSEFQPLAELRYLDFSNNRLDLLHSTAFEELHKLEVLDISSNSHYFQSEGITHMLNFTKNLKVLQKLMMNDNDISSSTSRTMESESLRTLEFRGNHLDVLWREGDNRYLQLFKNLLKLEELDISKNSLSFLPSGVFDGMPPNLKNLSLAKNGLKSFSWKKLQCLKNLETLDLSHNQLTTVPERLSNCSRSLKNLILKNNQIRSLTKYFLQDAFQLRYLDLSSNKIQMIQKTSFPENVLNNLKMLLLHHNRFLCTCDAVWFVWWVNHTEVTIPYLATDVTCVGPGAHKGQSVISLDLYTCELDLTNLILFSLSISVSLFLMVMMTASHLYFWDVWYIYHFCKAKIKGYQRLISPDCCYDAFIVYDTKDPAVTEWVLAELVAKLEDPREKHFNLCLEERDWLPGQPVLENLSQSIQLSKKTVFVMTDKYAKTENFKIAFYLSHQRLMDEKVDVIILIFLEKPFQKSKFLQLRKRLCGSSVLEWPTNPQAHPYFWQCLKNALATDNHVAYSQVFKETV

| IC50 (human TLR7) [nM] | IC50 (human TLR8; [1]) [nM] | IC50 (human TLR9; [2]) [nM] | IC50 (human TLR8; [3]) [nM] | IC50 (human TLR9; [4]) [nM] | Structure (SMILES) |
| --- | --- | --- | --- | --- | --- |
| 3.7 | 12 | 17300 |  |  | Cc1c(-c2[nH]c3ccc(N4CCN(C(=O)C5CN(C)C5)C[C@@H]4C)nc3c2C(C)C)cn2ncnc2c1C [Example 829] |
| 0.62 | 0.63 | 7440 |  |  | CNCC(=O)N1CCN(c2ccc3[nH]c(-c4cn5ncnc5c(C)c4C)c(C(C)C)c3n2)CC1 [Example 830] |
| 4 | 2.3 | 16800 |  |  | Cc1c(-c2[nH]c3ccc(N4CCN(C(=O)CN)CC4)nc3c2C(C)C)cn2ncnc2c1C [Example 832] |
| 1.9 | 4.9 | 9780 |  |  | Cc1c(-c2[nH]c3ccc(N4CCN(C(C)C)C[C@H]4C)nc3c2C(C)C)cn2ncnc2c1C [Example 833] |
| 0.46 | 2.5 | 4370 |  |  | Cc1c(-c2[nH]c3ccc(N4CCN(C(=O)CN5CCC5)C[C@H]4C)nc3c2C(C)C)cn2ncnc2c1C [Example 834] |
| 0.7 | 4.1 | 5560 |  |  | Cc1c(-c2[nH]c3ccc(N4CCN(C(=O)CN5CCCC5)C[C@H]4C)nc3c2C(C)C)cn2ncnc2c1C [Example 835] |
| 2.4 | 4.1 | 16400 |  |  | Cc1c(-c2[nH]c3ccc(N4CCN(C(=O)CNC5CC5)C[C@H]4C)nc3c2C(C)C)cn2ncnc2c1C [Example 836] |
| 0.7 | 1.6 | 7820 |  |  | Cc1c(-c2[nH]c3ccc(N4CCN(C(=O)CNC(C)C)C[C@H]4C)nc3c2C(C)C)cn2ncnc2c1C [Example 837] |
| 0.6 |  |  | 3.5 | 9890 | [2H]C([2H])([2H])N(CC(=O)N1CCN(c2ccc3[nH]c(-c4cn5ncnc5c(C)c4C)c(C(C)C)c3n2)[C@H](C)C1)C([2H])([2H])[2H] [Example 838] |
| 0.37 | 3.2 | 7870 |  |  | Cc1c(-c2[nH]c3ccc(N4C[C@H](C)N(C(=O)CN(C)C)C[C@H]4C)nc3c2C(C)C)cn2ncnc2c1C [Example 839] |
| 0.38 | 1.5 | 7400 |  |  | Cc1c(-c2[nH]c3ccc(N4C[C@H](C)N(C(=O)CCN(C)C)C[C@H]4C)nc3c2C(C)C)cn2ncnc2c1C [Example 840] |
| 5.6 | 28 | 14300 |  |  | Cc1c(-c2[nH]c3ccc(N4C[C@H](C)N(C(C)C)C[C@H]4C)nc3c2C(C)C)cn2ncnc2c1C [Example 841] |
| 0.38 | 0.47 | 6920 |  |  | Cc1c(-c2[nH]c3ccc(N4C[C@@H](C)N(C(=O)CN(C)C)C[C@@H]4C)nc3c2C(C)C)cn2ncnc2c1C [Example 842] |
| 0.52 | 1.4 | 5480 |  |  | Cc1c(-c2[nH]c3ccc(N4C[C@@H](C)N(C(=O)CCN(C)C)C[C@@H]4C)nc3c2C(C)C)cn2ncnc2c1C [Example 843] |
| 2 | 11 | 8820 |  |  | Cc1c(-c2[nH]c3ccc(N4C[C@@H](C)N(C(C)C)C[C@@H]4C)nc3c2C(C)C)cn2ncnc2c1C [Example 844] |
| 7.2 | 14 | 21300 |  |  | Cc1c(-c2[nH]c3ccc(N4C[C@H](C)N(CCCS(C)(=O)=O)C[C@H]4C)nc3c2C(C)C)cn2ncnc2c1C [Example 845] |
| 4.9 | 8.3 | 22500 |  |  | Cc1c(-c2[nH]c3ccc(N4C[C@H](C)N(CCC(N)=O)C[C@H]4C)nc3c2C(C)C)cn2ncnc2c1C [Example 847] |
| 1.2 | 2.2 | 17500 |  |  | Cc1c(-c2[nH]c3ccc(N4C[C@@H](C)N(CCC(N)=O)C[C@@H]4C)nc3c2C(C)C)cn2ncnc2c1C [Example 848] |
| 0.72 | 1.6 | 6540 |  |  | Cc1c(-c2[nH]c3ccc(N4CCN(C(=O)CCN(C)C)[C@H](C)C4)nc3c2C(C)C)cn2ncnc2c1C [Example 850] |
| 5.9 | 2.2 | 9980 |  |  | Cc1c(-c2[nH]c3ccc(N4CCN(C(C)C)[C@H](C)C4)nc3c2C(C)C)cn2ncnc2c1C [Example 851] |
| 5.2 | 0.82 | 16200 |  |  | Cc1c(-c2[nH]c3ccc(N4CCN(CCC(N)=O)[C@H](C)C4)nc3c2C(C)C)cn2ncnc2c1C [Example 852] |
| 11 | 5 | 32300 |  |  | Cc1c(-c2[nH]c3ccc(N4CCN(C(=O)C5(N(C)C)CC5)CC4)nc3c2C(C)C)cn2ncnc2c1C [Example 854] |
| 7.3 | 0.46 | 27100 |  |  | Cc1c(-c2[nH]c3ccc(N4CCN(CCCS(C)(=O)=O)[C@H](C)C4)nc3c2C(C)C)cn2ncnc2c1C [Example 856] |
| 0.65 |  |  | 0.4 | 4400 | [2H]C1([2H])NC([2H])([2H])C([2H])([2H])N(c2ccc3[nH]c(-c4cn5ncnc5c(C)c4C)c(C(C)C)c3n2)C1([2H])[2H] [Example 857] |

| IC50 (human TLR7) [nM] | IC50 (human TLR8; [1]) [nM] | IC50 (human TLR9; [2]) [nM] | IC50 (human TLR8; [3]) [nM] | IC50 (human TLR9; [4]) [nM] | Structure (SMILES) |
| --- | --- | --- | --- | --- | --- |
| 0.3 | 0.62 | 5060 |  |  | Cc1c(-c2[nH]c3ccc(N4C[C@@H](C)N(C(=O)CCN(C)C)[C@@H](C)C4)nc3c2C(C)C)cn2ncnc2c1C [Example 860] |
| 0.31 | 4.2 | 5010 |  |  | Cc1c(-c2[nH]c3ccc(N4[C@H](C)CNC[C@H]4C)nc3c2C(C)C)cn2ncnc2c1C [Example 861] |
| 0.29 | 2.2 | 7040 |  |  | Cc1c(-c2[nH]c3ccc(N4C[C@@H](C)N(C(=O)CN(C)C)[C@@H](C)C4)nc3c2C(C)C)cn2ncnc2c1C [Example 862] |
| 0.52 | 17 | 6060 |  |  | Cc1c(-c2[nH]c3ccc(N4[C@H](C)CN(C(=O)CN(C)C)C[C@H]4C)nc3c2C(C)C)cn2ncnc2c1C [Example 863] |
| 1.5 | 12 | 5690 |  |  | Cc1c(-c2[nH]c3ccc(N4[C@H](C)CN(C(=O)CCN(C)C)C[C@H]4C)nc3c2C(C)C)cn2ncnc2c1C [Example 864] |
| 1.3 | 72 | 8890 |  |  | Cc1c(-c2[nH]c3ccc(N4[C@H](C)CN(C(C)C)C[C@H]4C)nc3c2C(C)C)cn2ncnc2c1C [Example 865] |
| 3.2 | 74 | 47600 |  |  | Cc1c(-c2[nH]c3ccc(N4[C@H](C)CN(CC(N)=O)C[C@H]4C)nc3c2C(C)C)cn2ncnc2c1C [Example 866] |
| 4.5 | 11 | > 50000 |  |  | Cc1c(-c2[nH]c3ccc(N4C[C@@H](C)N(CC(N)=O)[C@@H](C)C4)nc3c2C(C)C)cn2ncnc2c1C [Example 867] |
| 12 | 6.1 | > 50000 |  |  | Cc1c(-c2[nH]c3ccc(N4C[C@@H](C)N(CCCS(C)(=O)=O)[C@@H](C)C4)nc3c2C(C)C)cn2ncnc2c1C [Example 868] |
| 1.9 | 34 | 40300 |  |  | Cc1c(-c2[nH]c3ccc(N4[C@H](C)CN(CCCS(C)(=O)=O)C[C@H]4C)nc3c2C(C)C)cn2ncnc2c1C [Example 869] |
| 0.56 | 3.3 | 14400 |  |  | CCN(C)CC(=O)N1CCN(c2ccc3[nH]c(-c4cn5ncnc5c(C)c4C)c(C(C)C)c3n2)CC1 [Example 870] |
| 1.6 | 5.1 | 12700 |  |  | CCN(CC)CC(=O)N1CCN(c2ccc3[nH]c(-c4cn5ncnc5c(C)c4C)c(C(C)C)c3n2)CC1 [Example 871] |
| 0.97 | 3.8 | 9540 |  |  | Cc1c(-c2[nH]c3ccc(N4CCN(C(=O)CN(C)C(C)C)CC4)nc3c2C(C)C)cn2ncnc2c1C [Example 872] |
| 3.1 | 1.8 | 12800 |  |  | CCCN(C)CC(=O)N1CCN(c2ccc3[nH]c(-c4cn5ncnc5c(C)c4C)c(C(C)C)c3n2)CC1 [Example 873] |
| 1.2 | 5.3 | 15500 |  |  | CCCCN(C)CC(=O)N1CCN(c2ccc3[nH]c(-c4cn5ncnc5c(C)c4C)c(C(C)C)c3n2)CC1 [Example 874] |
| 6.6 | 3.2 | 40500 |  |  | Cc1c(-c2[nH]c3ccc(N4CCN(C(=O)CN(C)CC(C)C)CC4)nc3c2C(C)C)cn2ncnc2c1C [Example 875] |
| 644 | 517 | 13300 |  |  | CCCCN(CC)CC(=O)N1CCN(c2ccc3[nH]c(-c4cn5ncnc5c(C)c4C)c(C(C)C)c3n2)CC1 [Example 876] |
| 1.5 | 1.6 | 12600 |  |  | Cc1c(-c2[nH]c3ccc(N4CCN(C(=O)CNC(C)(C)C)CC4)nc3c2C(C)C)cn2ncnc2c1C [Example 877] |
| 0.48 | 2.2 | 9040 |  |  | Cc1c(-c2[nH]c3ccc(N4CCN(C(=O)CN(C)C(C)(C)C)CC4)nc3c2C(C)C)cn2ncnc2c1C [Example 878] |
| 1 | 3.4 | 7550 |  |  | CCN(CC(=O)N1CCN(c2ccc3[nH]c(-c4cn5ncnc5c(C)c4C)c(C(C)C)c3n2)CC1)C(C)C [Example 879] |
| 6.4 | 30 | 19300 |  |  | Cc1c(-c2[nH]c3ccc(N4CCN(C(=O)CN(CC(C)C)C(C)C)CC4)nc3c2C(C)C)cn2ncnc2c1C [Example 880] |
| 25 | 68 | 43500 |  |  | Cc1c(-c2[nH]c3ccc(N4CCN(C(=O)CN(CC(C)C)CC(C)C)CC4)nc3c2C(C)C)cn2ncnc2c1C [Example 881] |
| 3.3 | 11 | 7760 |  |  | CCCCN(CC(=O)N1CCN(c2ccc3[nH]c(-c4cn5ncnc5c(C)c4C)c(C(C)C)c3n2)CC1)C(C)C [Example 882] |

| Structure (SMILES) | IC50 (human TLR7) [nM] | IC50 (human TLR8; [1]) [nM] | IC50 (human TLR9; [2]) [nM] | IC50 (human TLR8; [3]) [nM] | IC50 (human TLR9; [4]) [nM] |
| --- | --- | --- | --- | --- | --- |
| Cc1c(-c2[nH]c3ccc(N4CCN(C(=O)[C@H](C)N(C)C)CC4)nc3c2C(C)C)cn2ncnc2c1C [Example 853] | 0.51 | 0.66 | 9570 |  |  |
